Measurements from patent publication US20250129096A1, “ANNULATED 2-AMINO-3-CYANO THIOPHENES AND DERIVATIVES FOR THE TREATMENT OF CANCER” (Boehringer Ingelheim Int'l GmbH Corp., priority 2021, published 2025).
In brackets after ≈: the same amount, converted by molar mass. Like-named read-outs stand apart in the source and are kept apart here.

Columns and labels:
KRAS (G12C)::SOS1 = molecular target: T1, KRAS (G12C)::SOS1 (Homo sapiens, UniProt P01116, C118S/C51S/C80L/G12C); test: KRAS::SOS1 AlphaScreen binding assay, KRAS G12C
T1 construct: KRAS (G12C) 1-169, N-terminal 6His-tag for purification, cleaved off; 6His-tag (N, cleaved yes)
Procedure: (§1) Low IC50 values in this assay setting are indicative of strong inhibition of protein-protein interaction between SOS1 and KRAS:
(§2) These assays measure the inhibitory effect of compounds on KRAS mutant protein-protein interactions using the Alpha Screen technology by Perkin Elmer.
(§3) For the chosen highest assay concentration of 100 μM, 150 nL of compound solution are transferred from a 10 mM DMSO compound stock solution. A series of eleven fivefold dilutions per compound are transferred to the assay plate, compound dilutions are tested in duplicates. DMSO are added as backfill to a total volume of 150 nL.
(§4) The assays run on a fully automated robotic system in a darkened room below 100 Lux. To 150 nl of compound dilution 10 μl of a mix including KRAS mutant protein, SOS1 (final assay concentrations see above) and GDP nucleotide (Sigma G7127; final assay concentration 10 μM) in assay buffer (1×PBS, 0.1% BSA, 0.05% Tween 20) are added into columns 1-24. After 30 minutes incubation time 5 μl of Alpha Screen bead mix in assay buffer are added into columns 1-23.
(§5) Plates are kept at room temperature in a darkened incubator. After an additional 60 minutes incubation time the signal is measured in a PerkinElmer Envision HTS Multilabel Reader using the AlphaScreen specs from PerkinElmer.
(§6) IC50 values are calculated and analyzed with Boehringer Ingelheim's MEGALAB IC50 application using a 4 parametric logistic model.

[1] = Metabolic (microsomal) stability assay, HLM; type: in vitro ADME; conditions: human liver microsomes, 1 μM test compound, predicted clearance as percent of liver blood flow
Procedure: The metabolic degradation of the test compound is assayed at 37° C. with pooled liver microsomes (mouse (MLM), rat (RLM) or human (HLM)). The final incubation volume of 48 μL per time point contains TRIS buffer (pH 7.5; 0.1 M), magnesium chloride (6.5 mM), microsomal protein (0.5 mg/mL for mouse/rat, 1 mg/mL for human specimens) and the test compound at a final concentration of 1 μM. Following a short preincubation period at 37° C., the reactions are initiated by addition of 12 μL beta-nicotinamide adenine dinucleotide phosphate, reduced form (NADPH, 10 mM) and terminated by transferring an aliquot into solvent after different time points (0, 5, 15, 30, 60 min). Additionally, the NADPH-independent degradation is monitored in incubations without NADPH, terminated at the last time point by addition of acetonitrile. The quenched incubations are pelleted by centrifugation (4,000 rpm, 15 min). An aliquot of the supernatant is assayed by LC-MS/MS to quantify the concentration of parent compound in the individual samples.
In vitro intrinsic clearance (CLint, in vitro) is calculated from the time course of the disappearance of the test drug during the microsomal incubation. Each plot is fitted to the first-order elimination rate constant as C(t)=C0*exp(−ke*t), where C(t) and C0 are the concentration of unchanged test drug at incubation time t and that at preincubation and ke is the disappearance rate constant of the unchanged drug. Subsequently, CLint, in vitro (μL min^−1·amount protein) values are converted to predicted CLint, in vivo (mL min^−1 kg^−1) from incubation parameters according to the equation CLint, in vivo=CLint, in vitro×(incubation volume (ml)/amount protein (mg))×(amount protein (mg)/g liver tissue)×(liver weight/body wt.). For better across species comparison the predicted clearance is expressed as percent of the liver blood flow [% QH] (mL min^−1 kg^−1) in the individual species. In general, high stability (corresponding to low % QH) of the compounds across species is desired.

KRAS (WT)::SOS1 = molecular target: T2, KRAS (WT)::SOS1 (Homo sapiens, UniProt P01116, C118S); test: KRAS::SOS1 AlphaScreen binding assay, KRAS WT
T2 construct: KRAS (WT) 1-169, N-terminal 6His-tag for purification, cleaved off; 6His-tag (N, cleaved yes); TEV cleavage site
Procedure: as §1, §2, §3, §4, §5, §6

KRAS G12D Ba/F3 cells = KRAS G12D Ba/F3 cells (Homo sapiens, UniProt P01116, G12D, cells depend on it); test: Ba/F3 proliferation assay, KRAS G12D; type: cell-based; conditions: 72 h, AlamarBlue; read-out: KRAS G12D Ba/F3 IC50
Procedure: (§7) To generate KRASG12-dependent Ba/F3 models, Ba/F3 cells are transduced with retroviruses containing vectors that harbor KRASG12 isoforms. Platinum-E cells (Cell Biolabs) are used for retrovirus packaging. Retrovirus is added to Ba/F3 cells. To ensure infection, 4 μg/mL polybrene is added and cells are spinfected. […] Cells with an infection efficiency of 10% to 20% are further cultivated and puromycin selection with 1 μg/mL is initiated. As a control, parental Ba/F3 cells are used to show selection status. Selection is considered successful when parental Ba/F3 cells cultures died. To evaluate the transforming potential of KRASG12 mutations, the growth medium is no longer supplemented with IL-3. Ba/F3 cells harboring the empty vector are used as a control. Approximately ten days before conducting the experiments, puromycin is left out. […] All treatments are performed in technical duplicates. […] AlamarBlue™(ThermoFisher), a viability stain, is added and fluorescence measured in the PerkinElmer Envision HTS Multilabel Reader. The raw data are imported into and analyzed with the Boehringer Ingelheim proprietary software MegaLab (curve fitting based on the program PRISM, GraphPad Inc.).

[2] = Solubility measurement (DMSO solution precipitation method); type: physicochemical; conditions: aqueous buffer, kinetic from dmso stock, ambient temperature
Procedure: The DMSO solution is diluted with an aqueous medium (McIlvaine buffer with pH=4.5 or 6.8) to a final concentration of 250 μM. After 24 h of shaking at ambient temperature a potentially formed precipitate is removed by filtration. The concentration of the test compound in the filtrate is determined by LC-UV methods by calibrating the signal to the signal of a reference solution with complete dissolution of the test compound in acetonitrile/water (1:1) with known concentration.

KRAS G12C Ba/F3 cells = KRAS G12C Ba/F3 cells (Homo sapiens, UniProt P01116, G12C, cells depend on it); test: Ba/F3 proliferation assay, KRAS G12C; type: cell-based; conditions: 72 h, AlamarBlue; read-out: KRAS G12C Ba/F3 IC50
Procedure: as §7

KRAS (G12D)::SOS1 = molecular target: T3, KRAS (G12D)::SOS1 (Homo sapiens, UniProt P01116, G12D); test: KRAS::SOS1 AlphaScreen binding assay, KRAS G12D
T3 construct: KRAS (G12D) 1-169, N-terminal 6His-tag, C-terminal avi-tag; 6His-tag (N); purchased Xtal BioStructures, Inc. (KRAS G12D); Viva Biotech Ltd (SOS1)
Procedure: as §1, §2, §3, §4, §5, §6

KRAS G12V Ba/F3 cells = KRAS G12V Ba/F3 cells (Homo sapiens, UniProt P01116, G12V, cells depend on it); test: Ba/F3 proliferation assay, KRAS G12V; type: cell-based; conditions: 72 h, AlamarBlue; read-out: KRAS G12V Ba/F3 IC50
Procedure: as §7

[3] = McIlvaine buffer pH 4.5, 24 h, read-out: solubility pH 4.5
[4] = McIlvaine buffer pH 6.8, 24 h, read-out: solubility pH 6.8

KRAS G12D Ba/F3 cells, sequence (P01116 whole entry G12D, canonical isoform): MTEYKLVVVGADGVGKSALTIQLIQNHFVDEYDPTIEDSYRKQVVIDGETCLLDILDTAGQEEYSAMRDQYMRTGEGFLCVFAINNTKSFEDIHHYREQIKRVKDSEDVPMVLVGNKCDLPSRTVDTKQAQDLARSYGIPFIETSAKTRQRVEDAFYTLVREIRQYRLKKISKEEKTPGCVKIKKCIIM
T1 sequence (P01116 1-169 isoform P01116-2 G12C/C51S/C80L/C118S): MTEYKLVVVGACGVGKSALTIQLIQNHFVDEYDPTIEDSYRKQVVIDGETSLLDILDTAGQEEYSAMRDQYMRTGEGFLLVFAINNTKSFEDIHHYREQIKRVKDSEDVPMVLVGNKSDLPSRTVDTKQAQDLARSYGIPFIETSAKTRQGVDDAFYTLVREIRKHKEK
T3 sequence (P01116 1-169 isoform P01116-2 G12D): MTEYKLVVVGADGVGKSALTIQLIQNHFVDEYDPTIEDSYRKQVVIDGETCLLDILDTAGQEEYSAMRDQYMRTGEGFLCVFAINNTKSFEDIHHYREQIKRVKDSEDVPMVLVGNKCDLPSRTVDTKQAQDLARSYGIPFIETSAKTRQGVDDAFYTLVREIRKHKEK
KRAS G12C Ba/F3 cells, sequence (P01116 whole entry G12C): as the sequence (P01116 whole entry G12D, canonical isoform) above, with D12C counted along it
T2 sequence (P01116 1-169 isoform P01116-2 C118S): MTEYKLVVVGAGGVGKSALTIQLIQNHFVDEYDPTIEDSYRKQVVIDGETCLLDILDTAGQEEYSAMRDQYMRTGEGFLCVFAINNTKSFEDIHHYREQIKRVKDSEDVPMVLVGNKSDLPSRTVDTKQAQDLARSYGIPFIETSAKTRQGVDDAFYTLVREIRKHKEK
KRAS G12V Ba/F3 cells, sequence (P01116 whole entry G12V): as the sequence (P01116 whole entry G12D, canonical isoform) above, with D12V counted along it

| Compound | IC50 (KRAS (G12C)::SOS1) | HLM QH [1] | IC50 (KRAS (WT)::SOS1) | GI50 (KRAS G12D Ba/F3 cells) | solubility at 24 h [2, 3] | solubility at 24 h [2, 4] | GI50 (KRAS G12C Ba/F3 cells) | IC50 (KRAS (G12D)::SOS1) | GI50 (KRAS G12V Ba/F3 cells) |
| --- | --- | --- | --- | --- | --- | --- | --- | --- | --- |
| C[C@H]1CN(C2CCOCC2)CCCN1c1nccc(-c2noc3c2CCC[C@@]32CCCc3sc(N)c(C#N)c32)n1 (single isomer, unassigned) [IIg-1] | 0.01 µM | >88% | 0.025 µM | 0.023 µM | 107 µg/mL (≈ 191 µM) | < 1 µg/mL | 0.01 µM | 0.004 µM |  |
| C[C@H](Oc1nccc(-c2n[nH]c3c2CCCC32CCCc3sc(N)c(C#N)c32)n1)[C@@H]1CCCN1C (stereo partly drawn) [IIIa-1] | 0.028 µM |  |  | 0.697 µM |  |  | 0.93 µM | 0.016 µM |  |
| C[C@H]1CNCCCN1c1nccc(-c2nn(C)c3c2CCC32CCCc3sc(N)c(C#N)c32)n1 (stereo partly drawn) [IIIb-1] | 1.59 µM | 31% |  | 15.1 µM |  |  | 11.5 µM | 1.77 µM | 10.4 µM |
| C[C@H](Oc1nccc(-c2nnn3c2CCCC32CCCc3sc(N)c(C#N)c32)n1)[C@@H]1CCCN1C (stereo partly drawn) [IVa-1] | 0.056 µM | 80% |  | 0.381 µM |  |  | 0.521 µM | 0.018 µM |  |
| C[C@H]1CNCCCN1c1cccc(-c2onc3c2CCC[C@@]32CCCc3sc(N)c(C#N)c32)n1 [Ib-3] | 0.019 µM | <24% |  |  |  |  | 0.317 µM | 0.008 µM |  |
| C[C@H]1CN(CC2CC2)CCCN1c1nccc(-c2onc3c2CCC[C@@]32CCCc3sc(N)c(C#N)c32)n1 [Ig-1] | 0.008 µM | >88% |  | 0.048 µM | 23 µg/mL (≈ 43.4 µM) | 10 µg/mL (≈ 18.9 µM) | 0.089 µM | 0.003 µM |  |
| C[C@H]1CN(C2CCOC2)CCCN1c1nccc(-c2onc3c2CCC[C@@]32CCCc3sc(N)c(C#N)c32)n1 (stereo partly drawn) [Ig-2] | 0.012 µM |  |  | 0.174 µM | > 110 µg/mL | < 1 µg/mL | 0.123 µM | 0.004 µM |  |
| C[C@@H](O)CN1CCCN(c2nccc(-c3onc4c3CCC[C@@]43CCCc4sc(N)c(C#N)c43)n2)[C@@H](C)C1 [Ig-4] | 0.006 µM | >88% | 0.021 µM | 0.088 µM | > 153 µg/mL | 76 µg/mL (≈ 142 µM) | 0.108 µM | 0.003 µM |  |
